Values of other authors as cited in US20260344672A1, “CROP ENHANCEMENT” (SYNGENTA CROP PROTECTION AG, priority 2023, published 2026).

Test system: plant
Details: reported in the literature

Row | SMILES | early flowering and grain maturation | leaf area and plant height | photosynthetic capacity (plant greenness) | root system and root hair development | tiller number and productivity | plant health, tolerance to environmental stresses
1 | N#Cc1nn(-c2c(Cl)cc(C(F)(F)F)cc2Cl)c(N)c1[S+]([O-])C(F)(F)F (stereo not drawn) [fipronil] | stimulate early flowering and grain maturation | increase leaf area and plant height | increase photosynthetic capacity (plant greenness) | enhance overall root system and root hair development | increase tiller number and productivity | 
2 | COC(=O)N(OC)c1ccccc1COc1ccn(-c2ccc(Cl)cc2)n1 [pyraclostrobin] |  |  |  |  |  | improve plant health e.g. to improve the tolerance to environmental stresses
